# Measurements reported in US11111242B2, “Pyrrolo[2,3-d]pyrimidinyl, pyrrolo[2,3-b]pyrazinyl and pyrrolo[2,3-d]pyridinyl acrylamides” (Pfizer Inc., priority 2013, dated 2021).
# System: IL-15 induced P-STAT5 in human PBMC (total lymphocytes)
# Experiment: PBMC IL-15 Induced P-STAT5
# Format: cell-based
# Conditions: Homo sapiens, PBMC, IL-15 stimulated, read-out: PBMC IL15-pSTAT5 IC50
# Description: PBMC IL-15 Induced P-STAT5
# Frozen human PBMC (200-250 million cells/vial) was thawed at 37° C. The cells were transferred to 10 mL warm medium in a 50-mL conical tube, and centrifuged at 1,200 RPM at room temperature for 5 min. The supernatant was aspirated. […] After adding 47 ml D-PBS (37° C.) to PBMC/FBS suspension, centrifuging at 1,200 RPM at room temperature for 5 min, and aspirating the supernatant, the cells were resuspended in 20 mL warm RPMI medium. Ninety μL of cell suspension were pipetted per well in a 96-well, deep-well, V-bottom plate, and the plate was incubated at 37° C. for 30 min. […] After adding 0.8 mL staining buffer per well, the plates were centrifuged at 1,200 RPM (Beckman GS-6R or Sorvall Legend) at room temperature for 5 min, and again the supernatant was aspirated using a 8-channel or 12-channel manifold. The plate was vortexed, and 0.35 mL 90% methanol/10% H2O (−20° C.) was added per well, and the plate incubated on ice for 20 min. After again adding 0.8 mL staining buffer per well, the plates were centrifuged at 1,200 RPM (Beckman GS-6R or Sorvall Legend) at room temperature for 5 min, and again the supernatant was aspirated using a 8-channel or 12-channel manifold, and then 0.8 mL Staining buffer was added per well. After once again adding 0.8 mL staining buffer per well, the plates were centrifuged at 1,200 RPM (Beckman GS-6R or Sorvall Legend) at room temperature for 5 min, and again the supernatant was aspirated using a 8-channel or 12-channel manifold. […] Samples of 250 μL/well were transferred to a 96-well U-bottom plate, and the FACS analysis was performed gating on total lymphocytes. Samples were analyzed using a BD Calibur™ or BD FACSCanto™ flow cytometer equipped with the BD High Throughput Sampler.
row,SMILES,IC50 [nM]
1,"C=CC(=O)N1CCC(Oc2cnc3[nH]cc(-c4ccnc(C)c4)c3n2)CC1 [Example 220, 1-(4-{[7-(2-methylpyridin-4-yl)-5H-pyrrolo[2,3-b]pyrazin-2-yl]oxy}piperidin-1-yl)prop-2-en-1-one]",464
2,"C=CC(=O)N1CCC(Nc2cnc3[nH]cc(C(=O)NC4CCCC4(F)F)c3n2)CC1 (stereo not shown) [Example 234, 2-[(1-acryloylpiperidin-4-yl)amino]-N-(2,2-difluorocyclopentyl)-5H-pyrrolo[2,3-b]pyrazine-7-carboxamide]",65.2

# Same assay, conditions: IL-15 stimulated, read-out: PBMC IL15-pSTAT5 IC50
row,SMILES,IC50 [nM]
1,"C=CC(=O)N1CCC(Nc2cnc3[nH]cc(-c4cccc(C(=O)NC)c4)c3n2)CC1 [Example 204, 3-{2-[(1-acryloylpiperidin-4-yl)amino]-5H-pyrrolo[2,3-b]pyrazin-7-yl}-N-methylbenzamide]",855
2,"C=CC(=O)N1CCC(Nc2cnc3[nH]cc(-c4cncc(C#N)c4)c3n2)CC1 [Example 206, 5-{2-[(1-acryloylpiperidin-4-yl)amino]-5H-pyrrolo[2,3-b]pyrazin-7-yl}pyridine-3-carbonitrile]",163
3,"C=CC(=O)N1CCC(Oc2cnc3[nH]cc(-c4cncc(F)c4)c3n2)CC1 [Example 213, 1-(4-{[7-(5-fluoropyridin-3-yl)-5H-pyrrolo[2,3-b]pyrazin-2-yl]oxy}piperidin-1-yl)prop-2-en-1-one]",318
4,"C=CC(=O)N1CCC(Oc2cnc3[nH]cc(-c4ccc(C)nc4)c3n2)CC1 [Example 214, 1-(4-{[7-(6-methylpyridin-3-yl)-5H-pyrrolo[2,3-b]pyrazin-2-yl]oxy}piperidin-1-yl)prop-2-en-1-one]",1110
5,"C=CC(=O)N1CCC(Oc2cnc3[nH]cc(-c4cncnc4)c3n2)CC1 [Example 215, 1-(4-{[7-(pyrimidin-5-yl)-5H-pyrrolo[2,3-b]pyrazin-2-yl]oxy}piperidin-1-yl)prop-2-en-1-one]",1260
6,"C=CC(=O)N1CCC(Oc2cnc3[nH]cc(-c4cccnc4F)c3n2)CC1 [Example 217, 1-(4-{[7-(2-fluoropyridin-3-yl)-5H-pyrrolo[2,3-b]pyrazin-2-yl]oxy}piperidin-1-yl)prop-2-en-1-one]",129
7,"C=CC(=O)N1CCC(Oc2cnc3[nH]cc(-c4cnc(OC)nc4)c3n2)CC1 [Example 219, 1-(4-{[7-(2-methoxypyrimidin-5-yl)-5H-pyrrolo[2,3-b]pyrazin-2-yl]oxy}piperidin-1-yl)prop-2-en-1-one]",987
8,"C=CC(=O)N1CCC(Oc2cnc3[nH]cc(-c4ccnc(F)c4)c3n2)CC1 [Example 222, 1-(4-{[7-(2-fluoropyridin-4-yl)-5H-pyrrolo[2,3-b]pyrazin-2-yl]oxy}piperidin-1-yl)prop-2-en-1-one]",757
9,"C=CC(=O)N1CCC(Oc2cnc3[nH]cc(-c4cncc(C#N)c4)c3n2)CC1 [Example 225, 5-{2-[(1-acryloylpiperidin-4-yl)oxy]-5H-pyrrolo[2,3-b]pyrazin-7-yl}pyridine-3-carbonitrile]",2910
10,"C=CC(=O)N1CCC(Oc2cnc3[nH]cc(-c4ccc(F)nc4)c3n2)CC1 [Example 226, 1-(4-{[7-(6-fluoropyridin-3-yl)-5H-pyrrolo[2,3-b]pyrazin-2-yl]oxy}piperidin-1-yl)prop-2-en-1-one]",699
11,"C=CC(=O)N1CCC(Oc2cnc3[nH]cc(-c4cccc(C(=O)NC)c4)c3n2)CC1 [Example 227, 3-{2-[(1-acryloylpiperidin-4-yl)oxy]-5H-pyrrolo[2,3-b]pyrazin-7-yl}-N-methylbenzamide]",643
12,"C=CC(=O)N1CCC(Nc2cnc3[nH]cc(C(=O)NCC4(O)CCC4)c3n2)CC1 [Example 231, 2-[(1-acryloylpiperidin-4-yl)amino]-N-[(1-hydroxycyclobutyl)methyl]-5H-pyrrolo[2,3-b]pyrazine-7-carboxamide]",3620
13,"C=CC(=O)N1CCC(Nc2cnc3[nH]cc(C(=O)NCC4(O)CCCC4)c3n2)CC1 [Example 232, 2-[(1-acryloylpiperidin-4-yl)amino]-N-[(1-hydroxycyclopentyl)methyl]-5H-pyrrolo[2,3-b]pyrazine-7-carboxamide]",1640
14,"C=CC(=O)N1CCC(Nc2cnc3[nH]cc(C(=O)NCC4(O)CCC(C)C4)c3n2)CC1 (stereo not shown) [Example 235, 2-[(1-acryloylpiperidin-4-yl)amino]-N-[(1-hydroxy-3-methylcyclopentyl)methyl]-5H-pyrrolo[2,3-b]pyrazine-7-carboxamide]",1700
15,"C=CC(=O)N1CCC(Nc2cnc3[nH]cc(C(=O)N[C@@H]4CCC[C@H]4F)c3n2)CC1 [Example 237, 2-[(1-acryloylpiperidin-4-yl)amino]-N-[(1R,2R)-2-fluorocyclopentyl]-5H-pyrrolo[2,3-b]pyrazine-7-carboxamide]",80.1
16,"C=CC(=O)N1CCC(Nc2cnc3[nH]cc(C(=O)NCC4(O)CC[C@@H](C)C4)c3n2)CC1 (stereo partly drawn) [Example 239, 2-[(1-acryloylpiperidin-4-yl)amino]-N-{[(3R)-1-hydroxy-3-methylcyclopentyl]methyl}-5H-pyrrolo[2,3-b]pyrazine-7-carboxamide]",1900
17,"C=CC(=O)N1CCC(Nc2cnc3[nH]cc(C(=O)NCCCC#N)c3n2)CC1 [Example 242, 2-[(1-acryloylpiperidin-4-yl)amino]-N-(3-cyanopropyl)-5H-pyrrolo[2,3-b]pyrazine-7-carboxamide]",1100
18,"C=CC(=O)N1CCC(Nc2cnc3[nH]cc(C(=O)N[C@H](C(C)C)[C@@H](O)C(F)(F)F)c3n2)CC1 [Example 248, 2-[(1-acryloylpiperidin-4-yl)amino]-N-[(2R,3R)-1,1,1-trifluoro-2-hydroxy-4-methylpentan-3-yl]-5H-pyrrolo[2,3-b]pyrazine-7-carboxamide]",893
19,"C=CC(=O)N1CCC(Nc2cnc3[nH]cc(C(=O)NCC4(O)CCCC(F)(F)C4)c3n2)CC1 (stereo not shown) [Example 249, 2-[(1-acryloylpiperidin-4-yl)amino]-N-[(3,3-difluoro-1-hydroxycyclohexyl)methyl]-5H-pyrrolo[2,3-b]pyrazine-7-carboxamide]",2110
20,"C=CC(=O)N1CCC(Nc2cnc3[nH]cc(C(=O)NCC4(O)CCCC[C@H]4F)c3n2)CC1 (stereo partly drawn) [Example 250, 2-[(1-acryloylpiperidin-4-yl)amino]-N-{[(2R)-2-fluoro-1-hydroxycyclohexyl]methyl}-5H-pyrrolo[2,3-b]pyrazine-7-carboxamide]",4120
21,"C=CC(=O)N1CCC(Nc2cnc3[nH]cc(C(=O)NC(CC)C4(O)CCC4)c3n2)CC1 (stereo not shown) [Example 251b, 2-[(1-acryloylpiperidin-4-yl)amino]-N-[1-(1-hydroxycyclobutyl)propyl]-5H-pyrrolo[2,3-b]pyrazine-7-carboxamide]",1510
22,"C=CC(=O)N1CCC(Nc2cnc3[nH]cc(C(=O)N[C@@H](C(C)C)[C@H](O)C(F)(F)F)c3n2)CC1 [Example 252, 2-[(1-acryloylpiperidin-4-yl)amino]-N-[(2S,3S)-1,1,1-trifluoro-2-hydroxy-4-methylpentan-3-yl]-5H-pyrrolo[2,3-b]pyrazine-7-carboxamide]",673
23,"C=CC(=O)N1CCC(Nc2cnc3[nH]cc(C(=O)NCC4(O)CCC(F)(F)CC4)c3n2)CC1 [Example 252b, 2-[(1-acryloylpiperidin-4-yl)amino]-N-[(4,4-difluoro-1-hydroxycyclohexyl)methyl]-5H-pyrrolo[2,3-b]pyrazine-7-carboxamide]",2470
